Measured values reported in patent US20120088759A1, “THIAZOLIDIN-4-ONE AND [1,3]-THIAZINAN-4-ONE COMPOUNDS AS OREXIN RECEPTOR ANTAGONISTS” (priority 2009, published 2012).

What was measured:
human orexin-2 receptor = target: T1, human orexin-2 receptor (Homo sapiens, UniProt O43614); experiment: FLIPR intracellular calcium assay, orexin receptor antagonistic activity (OX2); format: cell-based; conditions: CHO cells expressing human orexin-2 receptor; 3 nM orexin-A; normalized to on-plate reference; *n = geometric mean from n values
T1 construct: expressed in transfected cells; host or cells: CHO (Chinese hamster ovary) cells, kept under G418
T1 sequence (O43614 1-444): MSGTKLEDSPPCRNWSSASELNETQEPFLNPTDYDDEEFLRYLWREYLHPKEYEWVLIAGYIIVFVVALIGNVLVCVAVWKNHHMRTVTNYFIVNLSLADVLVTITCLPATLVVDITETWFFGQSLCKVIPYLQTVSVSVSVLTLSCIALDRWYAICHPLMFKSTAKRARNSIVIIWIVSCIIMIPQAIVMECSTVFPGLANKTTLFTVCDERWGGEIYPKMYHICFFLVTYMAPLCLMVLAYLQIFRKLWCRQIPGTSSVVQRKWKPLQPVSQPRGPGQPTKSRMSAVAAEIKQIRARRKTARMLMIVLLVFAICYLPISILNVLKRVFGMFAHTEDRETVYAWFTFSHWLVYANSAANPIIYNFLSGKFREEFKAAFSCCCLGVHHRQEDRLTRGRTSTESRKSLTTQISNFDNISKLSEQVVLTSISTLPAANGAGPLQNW
Procedure: (§1) The orexin receptor antagonistic activity of the compounds of formula (I) is determined in accordance with the following experimental method.
(§2) Chinese hamster ovary (CHO) cells expressing the human orexin-1 receptor and the human orexin-2 receptor, respectively, are grown in culture medium (Ham F-12 with L-Glutamine) containing 300 μg/ml G418, 100 U/ml penicillin, 100 μg/ml streptomycin and 10% heat inactivated fetal calf serum (FCS). The cells are seeded at 20′000 cells/well into 384-well black clear bottom sterile plates (Greiner). The seeded plates are incubated overnight at 37° C. in 5% CO2.
(§3) Human orexin-A as an agonist is prepared as 1 mM stock solution in MeOH:water (1:1), diluted in HBSS containing 0.1% bovine serum albumin (BSA), NaHCO3: 0.375 g/l and 20 mM HEPES for use in the assay at a final concentration of 3 nM.
(§4) Antagonists are prepared as 10 mM stock solution in DMSO, then diluted in 384-well plates using DMSO followed by a transfer of the dilutions into in HBSS containing 0.1% bovine serum albumin (BSA), NaHCO3: 0.375 g/l and 20 mM HEPES. On the day of the assay, 50 μl of staining buffer (HBSS containing 1% FCS, 20 mM HEPES, NaHCO3: 0.375 g/l, 5 mM probenecid (Sigma) and 3 μM of the fluorescent calcium indicator fluo-4 AM (1 mM stock solution in DMSO, containing 10% pluronic) is added to each well. The 384-well cell-plates are incubated for 50 min at 37° C. in 5% CO2 followed by equilibration at rt for 30-120 min before measurement.
(§5) Within the Fluorescent Imaging Plate Reader (FLIPR Tetra, Molecular Devices), antagonists are added to the plate in a volume of 10 μl/well, incubated for 10 min and finally 10 μl/well of agonist is added. Fluorescence is measured for each well at 1 second intervals, and the height of each fluorescence peak is compared to the height of the fluorescence peak induced by 3 nM orexin-A with vehicle in place of antagonist. For each antagonist, the IC50 value (the concentration of compound needed to inhibit 50% of the agonistic response) is determined and normalized using the obtained IC50 value of a on-plate reference compound. Optimized conditions were achieved by adjustment of pipetting speed and cell splitting regime. The calculated IC50 values of the compounds may fluctuate depending on the daily cellular assay performance. Fluctuations of this kind are known to those skilled in the art.

human orexin-1 receptor = target: T2, human orexin-1 receptor (Homo sapiens, UniProt O43613); experiment: FLIPR intracellular calcium assay, orexin receptor antagonistic activity (OX1); format: cell-based; conditions: CHO cells expressing human orexin-1 receptor; 3 nM orexin-A; normalized to on-plate reference; *n = geometric mean from n values
T2 construct: expressed in transfected cells; host or cells: CHO (Chinese hamster ovary) cells, kept under G418
T2 sequence (O43613 1-425): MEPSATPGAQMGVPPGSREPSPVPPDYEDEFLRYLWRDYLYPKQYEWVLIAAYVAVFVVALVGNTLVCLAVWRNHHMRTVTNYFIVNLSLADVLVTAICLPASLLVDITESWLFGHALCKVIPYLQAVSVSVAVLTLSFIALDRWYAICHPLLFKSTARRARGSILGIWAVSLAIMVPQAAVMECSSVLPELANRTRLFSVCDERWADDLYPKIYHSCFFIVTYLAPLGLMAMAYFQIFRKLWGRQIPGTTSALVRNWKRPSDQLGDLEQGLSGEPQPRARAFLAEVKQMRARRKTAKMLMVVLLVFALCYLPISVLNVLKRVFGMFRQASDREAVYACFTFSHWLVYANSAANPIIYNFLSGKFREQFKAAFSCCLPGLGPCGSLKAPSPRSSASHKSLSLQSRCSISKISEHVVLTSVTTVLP
Procedure: as §1, §2, §3, §4, §5

| Structure (SMILES) | IC50 (human orexin-2 receptor) | IC50 (human orexin-1 receptor) |
| --- | --- | --- |
| CCOc1ccc(CN2C(=O)C(C)SC2c2c(OC)cccc2OC)cc1 (stereo not drawn) [Example 13, 2-(2,6-Dimethoxy-phenyl)-3-(4-ethoxy-benzyl)-5-methyl-thiazolidin-4-one] | 43 nM | 244 nM |
| CCOc1ccc(CN2C(=O)CS(=O)(=O)C2c2c(OC)cccc2OC)cc1 (stereo not drawn) [Example 290, 2-(2,6-Dimethoxy-phenyl)-3-(4-ethoxy-benzyl)-1,1-dioxo-thiazolidin-4-one] | 21 nM | 375 nM |
| CCOc1ccccc1C1SCCC(=O)N1Cc1c(OC)cccc1OC (stereo not drawn) [Example 43, 3-(2,6-Dimethoxy-benzyl)-2-(2-ethoxy-phenyl)-[1,3]thiazinan-4-one] | 70 nM | 793 nM |
| CCOc1ccccc1C1SCC(=O)N1Cc1cccc(OC(F)(F)F)c1 (stereo not drawn) [Example 81, 2-(2-Ethoxy-phenyl)-3-(3-trifluoromethoxy-benzyl)-thiazolidin-4-one] | 13 nM | 2290 nM |
| COc1cccc(OC)c1C1SCC(=O)N1Cc1ccc(Oc2ccccc2)cc1 (stereo not drawn) [Example 7, 2-(2,6-Dimethoxy-phenyl)-3-(4-phenoxy-benzyl)-thiazolidin-4-one] | 13 nM | 244 nM |
| COc1ccc(CN2C(=O)CSC2c2c(OC)cccc2OC)cc1 (stereo not drawn) [Example 1, 2-(2,6-Dimethoxy-phenyl)-3-(4-methoxy-benzyl)-thiazolidin-4-one] | 104 nM | 309 nM |
| COc1cccc(OC)c1C1SCC(=O)N1Cc1ccc(OC(C)C)cc1 (stereo not drawn) [Example 5, 2-(2,6-Dimethoxy-phenyl)-3-(4-isopropoxy-benzyl)-thiazolidin-4-one] | 16 nM | 169 nM |
| COc1cccc(OC)c1C1SCC(=O)N1Cc1ccc(OCC(F)(F)F)cc1 (stereo not drawn) [Example 18, 2-(2,6-Dimethoxy-phenyl)-3-[4-(2,2,2-trifluoro-ethoxy)-benzyl]-thiazolidin-4-one] | 10 nM | 323 nM |
| COc1cccc(OC)c1C1SCC(=O)N1Cc1ccc(-c2ccccc2)cc1 (stereo not drawn) [Example 203, 3-Biphenyl-4-ylmethyl-2-(2,6-dimethoxy-phenyl)-thiazolidin-4-one] | 125 nM | 1830 nM |
| CCOc1ccc(CN2C(=O)CSC2c2c(OC)ccc3c2OCO3)cc1 (stereo not drawn) [Example 11, 3-(4-Ethoxy-benzyl)-2-(5-methoxy-benzo[1,3]dioxol-4-yl)-thiazolidin-4-one] | 46 nM | 885 nM |
| COc1ccc2c(c1C1SCC(=O)N1Cc1ccc(OC(F)(F)F)cc1)OCCO2 (stereo not drawn) [Example 10, 2-(6-Methoxy-2,3-dihydro-benzo[1,4]dioxin-5-yl)-3-(4-trifluoromethoxy-benzyl)-thiazolidin-4-one] | 16 nM | 144 nM |
| COc1cccc(OC)c1C1SCC(=O)N1Cc1ccc(Oc2ccc(C)nn2)cc1 (stereo not drawn) [Example 280, 2-(2,6-Dimethoxy-phenyl)-3-[4-(6-methyl-pyridazin-3-yloxy)-benzyl]-thiazolidin-4-one] | 121 nM | 1740 nM |
| COc1cccc(Oc2ccc(CN3C(=O)CSC3c3c(OC)cccc3OC)cc2)n1 (stereo not drawn) [Example 282, 2-(2,6-Dimethoxy-phenyl)-3-[4-(6-methoxy-pyridin-2-yloxy)-benzyl]-thiazolidin-4-one] | 127 nM | 1950 nM |
| CCOc1ccc(CN2C(=O)CSC2c2c(OC)ccc3c(C)noc23)cc1 (stereo not drawn) [Example 19, 3-(4-Ethoxy-benzyl)-2-(6-methoxy-3-methyl-benzo[d]isoxazol-7-yl)-thiazolidin-4-one] | 153 nM | 8120 nM |
| COc1cccc(OCCO)c1C1SCC(=O)N1Cc1ccc(OC(F)(F)F)cc1 (stereo not drawn) [Example 267, 2-[2-(2-Hydroxy-ethoxy)-6-methoxy-phenyl]-3-(4-trifluoromethoxy-benzyl)-thiazolidin-4-one] | 24 nM | 263 nM |
| COc1ccc2c(c1C1SCC(=O)N1Cc1ccc(OC(F)(F)F)cc1)OCO2 (stereo not drawn) [Example 12, 2-(5-Methoxy-benzo[1,3]dioxol-4-yl)-3-(4-trifluoromethoxy-benzyl)-thiazolidin-4-one] | 11 nM | 310 nM |
| COc1ccc2nc(C)oc2c1C1SCC(=O)N1Cc1ccc(OC(F)(F)F)cc1 (stereo not drawn) [Example 23, 2-(6-Methoxy-2-methyl-benzooxazol-7-yl)-3-(4-trifluoromethoxy-benzyl)-thiazolidin-4-one] | 28 nM | 204 nM |
| COc1cccc(OC)c1C1SCC(=O)N1Cc1ccc(Oc2ccc(C)cn2)cc1 (stereo not drawn) [Example 281, 2-(2,6-Dimethoxy-phenyl)-3-[4-(5-methyl-pyridin-2-yloxy)-benzyl]-thiazolidin-4-one] | 61 nM | 781 nM |
| COc1cccc(OC)c1C1N(Cc2ccc(OC(C)C)cc2)C(=O)CS1(=O)=O (stereo not drawn) [Example 289, 2-(2,6-Dimethoxy-phenyl)-3-(4-isopropoxy-benzyl)-1,1-dioxo-thiazolidin-4-one] | 16 nM | 181 nM |
| COc1cccc(OC)c1C1SC(C)(C)C(=O)N1Cc1ccc2ccccc2c1 (stereo not drawn) [Example 176, 2-(2,6-Dimethoxy-phenyl)-5,5-dimethyl-3-naphthalen-2-ylmethyl-thiazolidin-4-one] | 295 nM | 20 nM |
| COc1cccc(OC)c1C1SCC(=O)N1Cc1ccc(Oc2cccc(C)n2)cc1 (stereo not drawn) [Example 283, 2-(2,6-Dimethoxy-phenyl)-3-[4-(6-methyl-pyridin-2-yloxy)-benzyl]-thiazolidin-4-one] | 51 nM | 942 nM |
| CCOc1cccc(OC)c1C1SCC(=O)N1Cc1ccc(OC(F)(F)F)cc1 (stereo not drawn) [Example 16, 2-(2-Ethoxy-6-methoxy-phenyl)-3-(4-trifluoromethoxy-benzyl)-thiazolidin-4-one] | 24 nM | 454 nM |
| CCOc1ccc(CN2C(=O)C(C)(C)SC2c2c(OC)cccc2OC)cc1 (stereo not drawn) [Example 175, 2-(2,6-Dimethoxy-phenyl)-3-(4-ethoxy-benzyl)-5,5-dimethyl-thiazolidin-4-one] | 663 nM | 86 nM |
| COc1cccc(OC)c1C1SCC(=O)N1Cc1ccc(Oc2cnccn2)cc1 (stereo not drawn) [Example 279, 2-(2,6-Dimethoxy-phenyl)-3-[4-(pyrazin-2-yloxy)-benzyl]-thiazolidin-4-one] | 32 nM | 1420 nM |
| COc1ccc2c(C)noc2c1C1SCC(=O)N1Cc1ccc(OC(F)(F)F)cc1 (stereo not drawn) [Example 22, 2-(6-Methoxy-3-methyl-benzo[d]isoxazol-7-yl)-3-(4-trifluoromethoxy-benzyl)-thiazolidin-4-one] | 19 nM | 2360 nM |
| CCOc1ccccc1C1SCCC(=O)N1Cc1ccccc1OC(F)F (stereo not drawn) [Example 40, 3-(2-Difluoromethoxy-benzyl)-2-(2-ethoxy-phenyl)-[1,3]thiazinan-4-one] | 68 nM | 1310 nM |
| COc1cc(C)cc(OC)c1C1SCC(=O)N1Cc1ccc(OC(F)(F)F)cc1 (stereo not drawn) [Example 34, 2-(2,6-Dimethoxy-4-methyl-phenyl)-3-(4-trifluoromethoxy-benzyl)-thiazolidin-4-one] | 28 nM | 107 nM |
